Columns and labels:
[1] = Phosphorus solubility in water (Quimociac method); type: physicochemical; details: tricalcium phosphate experiment, absolute content
Protocol: (§1) At room temperature, 3 g sample and 300 ml distilled water have been agitated for 30 min. Subsequently the solution has been diluted to 500 ml and stirred. Then the solution has been filtered to remove the remaining solids. The Ca^2+ content of the solution was determined flame photometrically by means of ICP, and the amount of dissolved phosphorus was determined by the Quimociac method. These two methods are well known in the technical field.

[2] = Calcium solubility in water (ICP); type: physicochemical; details: tricalcium phosphate experiment, absolute content
Protocol: as §1

pigs = details: phosphorus digestibility, Veevoedertabel 2000; cited from earlier work

| % P water sol. [1] | % Ca water sol. [2] | Compound | Dig. Coeff. for pigs Average (pigs) |
| --- | --- | --- | --- |
| <0.1% | <0.1% | hydroxyl apatite [Hydroxyl apatite (ref)] | – |
| – | – | O=P([O-])([O-])O.[Ca+2] [Dicalcium phosphate, anhydrate] | 0.64 |
| – | – | Dicalcium phosphate, dihydrate | 0.70 |

Source: patent US20060141098A1, “Nutritional additive for animals” (Kemira Grow How AB, priority 2002, published 2006)
